# Data taken from patent publication US10899759B2, “Positive allosteric modulators of the muscarinic acetylcholine receptor M1” (Vanderbilt University, priority 2016, dated 2021).
# Biological target: T1, human mAChR M1 (Homo sapiens, UniProt P11229)
# T1 construct: host or cells: CHO-K1
# T1 sequence (P11229 1-460): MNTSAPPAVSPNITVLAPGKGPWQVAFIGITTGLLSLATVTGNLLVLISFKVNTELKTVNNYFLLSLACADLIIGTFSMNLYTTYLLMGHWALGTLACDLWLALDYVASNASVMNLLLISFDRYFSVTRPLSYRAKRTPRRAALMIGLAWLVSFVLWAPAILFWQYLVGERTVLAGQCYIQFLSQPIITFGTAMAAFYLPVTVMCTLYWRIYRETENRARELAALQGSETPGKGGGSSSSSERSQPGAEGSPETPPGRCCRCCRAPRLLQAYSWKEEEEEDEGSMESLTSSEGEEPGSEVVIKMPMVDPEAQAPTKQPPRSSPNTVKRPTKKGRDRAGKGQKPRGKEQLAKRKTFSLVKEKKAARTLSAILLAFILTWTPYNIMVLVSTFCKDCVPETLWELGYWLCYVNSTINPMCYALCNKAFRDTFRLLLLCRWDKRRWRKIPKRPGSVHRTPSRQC
# Assay: mAChR M1 cell-based functional assay (calcium mobilization, Fluo-4, FDSS)
# Settings: CHO-K1 cells stably expressing hM1; for Emax: read-out: Human M1 Emax; for EC50: positive allosteric modulator activity as increase in the EC20 acetylcholine response
# Procedure: Chinese hamster ovary (CHO-K1) cells stably expressing rat (r)M1 were purchased from the American Type Culture Collection and cultured according to their indicated protocol. […] To make stable rM2, hM2, rM3, hM4, and rM4 cell lines for use in calcium mobilization assays, these cells also were stably transfected with a chimeric G-protein (Gqi5) (provided by B. R. Conklin, University of California, San Francisco) using Lipofectamine 2000. rM1, hM1, rM3, hM3, rM5, and hM5 cells were grown in Ham's F-12 medium containing 10% heat-inactivated fetal bovine serum (FBS), 20 mM HEPES, and 50 μg/mL G418 sulfate. rM2-Gqi5, hM2-Gqi5, and hM4-Gqi5 cells were grown in the same medium also containing 500 μg/mL Hygromycin B. Stable rM4-Gqi5 cells were grown in DMEM containing 10% heat-inactivated FBS, 20 mM HEPES, 400 μg/mL G418 sulfate, and 500 μg/mL Hygromycin B.
# For high throughput measurement of agonist-evoked increases in intracellular calcium, CHO-K1 cells stably expressing muscarinic receptors were plated in growth medium lacking G418 and hygromycin at 15,000 cells/20 μL/well in Greiner 384-well black-walled, tissue culture (TC)-treated, clear-bottom plates (VWR). Cells were incubated overnight at 37° C. and 5% CO2. […] Compound master plates were formatted in an 11 point CRC format (1:3 dilutions) in 100% DMSO with a starting concentration of 10 mM using the BRAVO liquid handler (Agilent). Test compound CRCs were then transferred to daughter plates (240 nL) using the Echo acoustic plate reformatter (Labcyte, Sunnyvale, Calif.) and then diluted into assay buffer (40 μL) to a 2× stock using a Thermo Fisher Combi (Thermo Fisher Scientific, Waltham, Mass.).
# Calcium flux was measured using the Functional Drug Screening System (FDSS) 6000 (Hamamatsu Corporation, Tokyo, Japan) as an increase in the fluorescent static ratio. Compounds were applied to cells (20 μL, 2×) using the automated system of the FDSS 6000 at 4 s into the 300 s protocol and the data were collected at 1 Hz. […] Agonist activity was analyzed as a concentration-dependent increase in calcium mobilization upon compound addition. Positive allosteric modulator activity was analyzed as a concentration-dependent increase in the EC20 acetylcholine response. Antagonist activity was analyzed as a concentration-dependent decrease in the EC80 acetylcholine response. Concentration-response curves were generated using a four-parameter logistical equation in XLfit curve fitting software (IDBS, Bridgewater, N.J.) for Excel (Microsoft, Redmond, Wash.) or Prism (GraphPad Software, Inc., San Diego, Calif.).
# The compound numbers correspond to the compound numbers used in Table 1.
Compound,Emax (EC20 acetylcholine response) [%],EC50 [nM],Human M1 Emax (EC20 acetylcholine response) [%]
"CC1CC(NC(=O)c2cc(Cc3ccc(-c4cnn(C)c4)nc3)c3ccsc3n2)CC(C)O1 (stereo not drawn) [Compound 116, N-(2,6-dimethyltetrahydropyran-4-yl)-4-[[6-(1-methylpyrazol-4-yl)-3-pyridyl]methyl]thieno[2,3-b]pyridine-6-carboxamide]",54.8,50,–
"Cn1cc(-c2ccc(Cc3cc(C(=O)NC4COC4)nc4sccc34)cn2)cn1 [Compound 124, 4-[[6-(1-methylpyrazol-4-yl)-3-pyridyl]methyl]-N-(oxetan-3-yl)thieno[2,3-b]pyridine-6-carboxamide]",53.5,40,–
"CC1(C)CC(NC(=O)c2cc(Cc3ccc(-n4cccn4)cc3)c3ccsc3n2)CCO1 (stereo not drawn) [Compound 72, N-(2,2-dimethyltetrahydropyran-4-yl)-4-[(4-pyrazol-1-ylphenyl)methyl]thieno[2,3-b]pyridine-6-carboxamide]",69,1420,–
"Cc1nc(-c2ccc(Cc3cc(C(=O)NC4CCOCC4C)nc4sccc34)cc2)co1 (stereo not drawn) [Compound 134, 4-[[4-(2-methyloxazol-4-yl)phenyl]methyl]-N-(3-methyltetrahydropyran-4-yl)thieno[2,3-b]pyridine-6-carboxamide]",51.4,1220,–
"Cn1cc(-c2ccc(Cc3cc(C(=O)NC4CC5(COC5)C4)nc4sccc34)cn2)cn1 [Compound 123, 4-[[6-(1-methylpyrazol-4-yl)-3-pyridyl]methyl]-N-(2-oxaspiro[3.3]heptan-6-yl)thieno[2,3-b]pyridine-6-carboxamide]",56.2,100,–
"1-methyl-N-tetrahydropyran-4-yl-4-[(4-thiazol-2-ylphenyl)methyl]pyrrolo[2,3-b]pyridine-6-carboxamide [Compound 61]",–,840,56.7
"Cc1nc(-c2ccc(Cc3cc(C(=O)NC4CC5(COC5)C4)nc4c3ccn4C)cc2)co1 [Compound 54, 1-methyl-4-[[4-(2-methyloxazol-4-yl)phenyl]methyl]-N-(2-oxaspiro[3.3]heptan-6-yl)pyrrolo[2,3-b]pyridine-6-carboxamide]",84.6,380,–
"CC1CC(NC(=O)c2cc(Cc3ccc(-c4ccn(C)n4)nc3)c3ccn(C)c3n2)CC(C)O1 (stereo not drawn) [Compound 148, N-(2,6-dimethyltetrahydropyran-4-yl)-1-methyl-4-[[6-(1-methylpyrazol-3-yl)-3-pyridyl]methyl]pyrrolo[2,3-b]pyridine-6-carboxamide]",82.4,940,–
"CC1CC(NC(=O)c2cc(Cc3ccc(-c4ccn(C)n4)cc3)c3ccsc3n2)CC(C)O1 (stereo not drawn) [Compound 91, N-(2,6-dimethyltetrahydropyran-4-yl)-4-[[4-(1-methylpyrazol-3-yl)phenyl]methyl]thieno[2,3-b]pyridine-6-carboxamide]",56.2,520,–
"Cn1ccc(-c2ccc(Cc3cc(C(=O)NCC4CCOCC4)nc4c3ccn4C)cc2)n1 [Compound 43, 1-methyl-4-[[4-(1-methylpyrazol-3-yl)phenyl]methyl]-N-(tetrahydropyran-4-ylmethyl)pyrrolo[2,3-b]pyridine-6-carboxamide]",49.6,610,–
"Cn1ncc2c(Cc3ccc(-n4cccn4)cc3)cc(C(=O)NC3CC4(COC4)C3)nc21 [Compound 6, 1-methyl-N-(2-oxaspiro[3.3]heptan-6-yl)-4-[(4-pyrazol-1-ylphenyl)methyl]pyrazolo[3,4-b]pyridine-6-carboxamide]",69.9,1730,–
"Cn1cc(-c2ccc(Cc3cc(C(=O)NC4CCOCC4(C)C)nc4sccc34)cn2)cn1 (stereo not drawn) [Compound 117, N-(3,3-dimethyltetrahydropyran-4-yl)-4-[[6-(1-methylpyrazol-4-yl)-3-pyridyl]methyl]thieno[2,3-b]pyridine-6-carboxamide]",55.7,150,–

# More lines, in order of falling EC50, values ahead:
Emax (EC20 acetylcholine response) [%],EC50 [nM],Compound,Human M1 Emax (EC20 acetylcholine response) [%]
69.6,2090,O=C(NC1CC(F)C1)c1cc(Cc2ccc(-n3cccn3)cc2)c2ccsc2n1 (stereo not drawn) [Compound 82],–
65.6,2080,"O=C(NCC1CCOC1)c1cc(Cc2ccc(-n3cccn3)cc2)c2ccsc2n1 (stereo not drawn) [Compound 79, 4-[(4-pyrazol-1-ylphenyl)methyl]-N-(tetrahydrofuran-3-ylmethyl)thieno[2,3-b]pyridine-6-carboxamide]",–
37.9,1450,"Cn1ccc2c(Cc3ccc(-c4nccs4)cc3)cc(C(=O)NCC3CCOCC3)nc21 [Compound 68, 1-methyl-N-(tetrahydropyran-4-ylmethyl)-4-[(4-thiazol-2-ylphenyl)methyl]pyrrolo[2,3-b]pyridine-6-carboxamide]",–
58.9,550,"Cn1cc(-c2ccc(Cc3cc(C(=O)N[C@@H]4CCOC4)nc4sccc34)cn2)cn1 [Compound 121, 4-[[6-(1-methylpyrazol-4-yl)-3-pyridyl]methyl]-N-[(3R)-tetrahydrofuran-3-yl]thieno[2,3-b]pyridine-6-carboxamide]",–
57.7,540,Cc1nc(-c2ccc(Cc3cc(C(=O)NCC4CCOCC4)nc4sccc34)cc2)co1 [Compound 135],–
86.1,520,"Cc1nc(-c2ccc(Cc3cc(C(=O)NC4CCOC(C)(C)C4)nc4c3ccn4C)cc2)co1 (stereo not drawn) [Compound 55, N-(2,2-dimethyltetrahydropyran-4-yl)-1-methyl-4-[[4-(2-methyloxazol-4-yl)phenyl]methyl]pyrrolo[2,3-b]pyridine-6-carboxamide]",–
60.8,160,"COCC(C)NC(=O)c1cc(Cc2ccc(-c3cnn(C)c3)nc2)c2ccsc2n1 (stereo not drawn) [Compound 128, N-(2-methoxy-1-methyl-ethyl)-4-[[6-(1-methylpyrazol-4-yl)-3-pyridyl]methyl]thieno[2,3-b]pyridine-6-carboxamide]",–
69.4,150,"CCn1ccc2c(Cc3ccc(-n4cccn4)cc3)cc(C(=O)N[C@H]3CCC[C@@H]3O)nc21 [Compound 14, 1-ethyl-N-[(1S,2S)-2-hydroxycyclopentyl]-4-[(4-pyrazol-1-ylphenyl)methyl]pyrrolo[2,3-b]pyridine-6-carboxamide]",–
87.1,140,"Cn1cc(-c2ccc(Cc3cc(C(=O)NC4CC5(COC5)C4)nc4c3ccn4C)cn2)cn1 [Compound 48, 1-methyl-4-[[6-(1-methylpyrazol-4-yl)-3-pyridyl]methyl]-N-(2-oxaspiro[3.3]heptan-6-yl)pyrrolo[2,3-b]pyridine-6-carboxamide]",–
41.4,60,"Cc1nc(-c2ccc(Cc3cc(C(=O)N[C@H]4CCOC[C@@H]4O)nc4sccc34)cc2)co1 [Compound 130, N-[(3R,4S)-3-hydroxytetrahydropyran-4-yl]-4-[[4-(2-methyloxazol-4-yl)phenyl]methyl]thieno[2,3-b]pyridine-6-carboxamide]",–
63.3,40,"Cn1ccc2c(Cc3ccc(-c4cscn4)cc3)cc(C(=O)N[C@H]3CCCC[C@@H]3O)nc21 [Compound 22, N-[(1S,2S)-2-hydroxycyclohexyl]-1-methyl-4-[(4-thiazol-4-ylphenyl)methyl]pyrrolo[2,3-b]pyridine-6-carboxamide]",–
66.4,30,"Cn1ccc2c(Cc3ccc(-n4cccn4)cc3)cc(C(=O)N[C@H]3CCCC[C@@H]3O)nc21 [Compound 17, N-[(1S,2S)-2-hydroxycyclohexyl]-1-methyl-4-[(4-pyrazol-1-ylphenyl)methyl]pyrrolo[2,3-b]pyridine-6-carboxamide]",–
